Test results from ChEMBL document CHEMBL5465560, “Selectivity Literature for EUbOPEN Chemogenomic Library” (2024).

Key:
[1] = biological target: T1, Ephrin type-B receptor 3 (Homo sapiens) (UniProt P54753); test: Selectivity interaction (Kinase panel (DSF assay)) EUB0001558a EPHB3
T1 sequence (whole entry): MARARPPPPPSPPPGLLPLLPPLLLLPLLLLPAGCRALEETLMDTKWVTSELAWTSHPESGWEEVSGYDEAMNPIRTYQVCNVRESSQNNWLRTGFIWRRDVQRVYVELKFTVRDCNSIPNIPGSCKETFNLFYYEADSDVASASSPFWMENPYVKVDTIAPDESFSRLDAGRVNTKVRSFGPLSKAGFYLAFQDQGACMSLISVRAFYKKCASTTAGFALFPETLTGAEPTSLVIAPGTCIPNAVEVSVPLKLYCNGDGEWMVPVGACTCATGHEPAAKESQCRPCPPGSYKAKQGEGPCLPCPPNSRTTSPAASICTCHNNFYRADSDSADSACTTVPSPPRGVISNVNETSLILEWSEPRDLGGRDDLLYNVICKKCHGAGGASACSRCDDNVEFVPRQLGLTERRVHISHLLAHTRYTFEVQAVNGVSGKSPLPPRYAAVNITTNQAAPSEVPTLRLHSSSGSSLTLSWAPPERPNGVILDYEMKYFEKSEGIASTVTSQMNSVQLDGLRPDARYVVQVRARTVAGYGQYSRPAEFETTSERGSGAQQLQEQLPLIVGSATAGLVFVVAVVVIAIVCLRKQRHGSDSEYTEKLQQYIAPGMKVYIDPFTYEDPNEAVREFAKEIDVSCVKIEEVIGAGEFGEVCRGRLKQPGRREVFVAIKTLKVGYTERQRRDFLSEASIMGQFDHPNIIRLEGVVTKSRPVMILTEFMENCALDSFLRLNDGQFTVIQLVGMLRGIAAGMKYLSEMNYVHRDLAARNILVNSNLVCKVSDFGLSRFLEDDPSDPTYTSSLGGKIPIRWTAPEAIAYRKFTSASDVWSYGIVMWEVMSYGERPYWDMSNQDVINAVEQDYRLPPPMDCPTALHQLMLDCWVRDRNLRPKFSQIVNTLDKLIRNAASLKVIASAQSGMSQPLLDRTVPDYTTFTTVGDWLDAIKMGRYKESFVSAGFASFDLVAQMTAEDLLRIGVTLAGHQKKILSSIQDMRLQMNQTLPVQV

[2] = biological target: Protein-tyrosine kinase 2-beta (Homo sapiens) (UniProt Q14289); test: Selectivity interaction (KinomeScan (DiscoverX)) EUB0000229b PTK2B; settings: at 10 µM
Sequence of Protein-tyrosine kinase 2-beta (Homo sapiens) (Q14289 whole entry, looked up): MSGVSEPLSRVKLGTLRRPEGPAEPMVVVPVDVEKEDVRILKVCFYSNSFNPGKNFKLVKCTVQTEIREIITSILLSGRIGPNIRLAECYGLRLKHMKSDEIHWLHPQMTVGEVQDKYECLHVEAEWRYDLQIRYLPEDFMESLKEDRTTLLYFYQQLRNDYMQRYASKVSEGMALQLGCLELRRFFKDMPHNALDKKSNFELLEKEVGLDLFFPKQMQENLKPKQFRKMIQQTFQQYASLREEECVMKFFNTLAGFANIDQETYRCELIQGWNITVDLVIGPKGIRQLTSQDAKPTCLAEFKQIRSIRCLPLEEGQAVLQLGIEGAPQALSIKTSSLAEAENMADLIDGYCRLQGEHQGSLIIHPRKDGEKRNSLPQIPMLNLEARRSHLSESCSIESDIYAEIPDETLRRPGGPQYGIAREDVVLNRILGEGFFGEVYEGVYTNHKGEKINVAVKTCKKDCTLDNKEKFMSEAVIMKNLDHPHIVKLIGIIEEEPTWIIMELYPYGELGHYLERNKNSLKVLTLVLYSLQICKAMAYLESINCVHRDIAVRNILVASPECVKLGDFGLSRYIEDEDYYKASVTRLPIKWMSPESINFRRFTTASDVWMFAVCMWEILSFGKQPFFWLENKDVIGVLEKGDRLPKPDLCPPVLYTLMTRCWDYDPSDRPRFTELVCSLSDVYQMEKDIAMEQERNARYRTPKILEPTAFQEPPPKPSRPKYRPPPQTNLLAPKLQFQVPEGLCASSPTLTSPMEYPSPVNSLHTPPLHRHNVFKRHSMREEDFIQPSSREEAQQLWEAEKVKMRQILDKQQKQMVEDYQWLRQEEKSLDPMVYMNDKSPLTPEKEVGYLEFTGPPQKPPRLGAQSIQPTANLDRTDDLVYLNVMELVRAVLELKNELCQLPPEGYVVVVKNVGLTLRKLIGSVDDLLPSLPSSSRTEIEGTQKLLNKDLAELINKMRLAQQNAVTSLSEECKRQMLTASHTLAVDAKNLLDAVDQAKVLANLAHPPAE

[3] = biological target: Serine/threonine-protein kinase PAK 6 (Homo sapiens) (UniProt Q9NQU5); test: Selectivity interaction (Upstate Kinase Profiler service (Millipore)) EUB0000056c PAK6; settings: at 1 µM
Sequence of Serine/threonine-protein kinase PAK 6 (Homo sapiens) (Q9NQU5 whole entry, looked up): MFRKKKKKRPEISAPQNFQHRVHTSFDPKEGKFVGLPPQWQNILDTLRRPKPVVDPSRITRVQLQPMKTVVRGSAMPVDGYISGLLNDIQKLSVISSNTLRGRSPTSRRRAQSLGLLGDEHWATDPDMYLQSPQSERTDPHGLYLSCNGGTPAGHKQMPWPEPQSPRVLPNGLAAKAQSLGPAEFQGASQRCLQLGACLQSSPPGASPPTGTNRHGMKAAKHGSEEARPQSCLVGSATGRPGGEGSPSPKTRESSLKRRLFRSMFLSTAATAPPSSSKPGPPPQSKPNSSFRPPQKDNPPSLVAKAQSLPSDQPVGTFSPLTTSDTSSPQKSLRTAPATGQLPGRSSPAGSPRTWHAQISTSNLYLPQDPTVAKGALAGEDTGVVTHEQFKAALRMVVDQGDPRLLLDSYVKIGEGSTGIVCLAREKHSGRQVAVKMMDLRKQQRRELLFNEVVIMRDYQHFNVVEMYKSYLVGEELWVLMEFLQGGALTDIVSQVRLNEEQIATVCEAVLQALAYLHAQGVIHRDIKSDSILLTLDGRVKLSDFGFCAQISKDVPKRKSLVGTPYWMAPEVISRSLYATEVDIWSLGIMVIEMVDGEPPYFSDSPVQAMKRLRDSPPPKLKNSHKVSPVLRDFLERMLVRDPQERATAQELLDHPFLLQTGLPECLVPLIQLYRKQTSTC

[4] = biological target: T2, Aurora kinase A (Homo sapiens) (UniProt O14965); test: Selectivity interaction (Kinase panel (Z-LYTE Assay)) EUB0001632a STK6; settings: at 10 µM
T2 sequence (whole entry): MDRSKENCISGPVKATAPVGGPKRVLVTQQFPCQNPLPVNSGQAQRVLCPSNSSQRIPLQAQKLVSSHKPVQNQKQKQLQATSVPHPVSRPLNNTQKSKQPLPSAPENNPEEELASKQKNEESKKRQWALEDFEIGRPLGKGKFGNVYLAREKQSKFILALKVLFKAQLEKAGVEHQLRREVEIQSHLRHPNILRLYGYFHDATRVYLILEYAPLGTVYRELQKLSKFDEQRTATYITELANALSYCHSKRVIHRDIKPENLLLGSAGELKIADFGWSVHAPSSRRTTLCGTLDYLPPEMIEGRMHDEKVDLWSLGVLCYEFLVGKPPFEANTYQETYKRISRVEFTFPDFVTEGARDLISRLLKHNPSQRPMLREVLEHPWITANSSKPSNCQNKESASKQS

[5] = biological target: T3, Serine/threonine-protein kinase Sgk2 (Homo sapiens) (UniProt Q9HBY8); test: Selectivity interaction (Kinase panel (Invitrogen)) EUB0000639a SGK2; settings: at 200 nM
T3 sequence (whole entry): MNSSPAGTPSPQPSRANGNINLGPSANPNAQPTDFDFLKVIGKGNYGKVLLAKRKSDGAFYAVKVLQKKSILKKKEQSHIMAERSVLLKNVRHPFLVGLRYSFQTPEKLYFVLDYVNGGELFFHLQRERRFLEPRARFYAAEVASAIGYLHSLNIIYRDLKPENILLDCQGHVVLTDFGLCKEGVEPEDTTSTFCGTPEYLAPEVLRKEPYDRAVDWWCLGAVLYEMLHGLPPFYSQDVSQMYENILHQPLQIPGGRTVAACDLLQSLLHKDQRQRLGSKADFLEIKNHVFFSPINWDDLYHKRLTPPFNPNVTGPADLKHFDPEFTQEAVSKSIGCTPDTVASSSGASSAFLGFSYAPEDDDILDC

[6] = biological target: Calcium/calmodulin-dependent protein kinase kinase 1 (Homo sapiens) (UniProt Q8N5S9); test: Selectivity interaction (KinomeScan (DiscoverX)) EUB0000607a CAMKK1; settings: at 10 µM
Sequence of Calcium/calmodulin-dependent protein kinase kinase 1 (Homo sapiens) (Q8N5S9 whole entry, looked up): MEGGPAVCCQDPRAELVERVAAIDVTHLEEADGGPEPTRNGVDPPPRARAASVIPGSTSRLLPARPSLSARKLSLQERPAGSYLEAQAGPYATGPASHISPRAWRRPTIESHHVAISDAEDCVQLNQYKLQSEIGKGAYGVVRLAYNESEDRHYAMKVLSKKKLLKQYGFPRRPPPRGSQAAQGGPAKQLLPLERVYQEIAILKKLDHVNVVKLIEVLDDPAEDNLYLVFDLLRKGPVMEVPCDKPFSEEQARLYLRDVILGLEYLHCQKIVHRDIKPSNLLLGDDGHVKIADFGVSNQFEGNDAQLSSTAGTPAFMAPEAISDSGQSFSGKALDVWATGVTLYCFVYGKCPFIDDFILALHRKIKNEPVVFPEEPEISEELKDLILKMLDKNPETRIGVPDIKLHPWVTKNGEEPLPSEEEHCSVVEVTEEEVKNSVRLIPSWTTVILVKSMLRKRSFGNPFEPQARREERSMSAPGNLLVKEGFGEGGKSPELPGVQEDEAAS

[7] = biological target: Tyrosine-protein kinase ABL2 (Homo sapiens, UniProt P42684); test: Selectivity interaction (KinomeScan (DiscoverX)) EUB0001049a ABL2; settings: at 1 µM
Sequence of Tyrosine-protein kinase ABL2 (P42684 whole entry): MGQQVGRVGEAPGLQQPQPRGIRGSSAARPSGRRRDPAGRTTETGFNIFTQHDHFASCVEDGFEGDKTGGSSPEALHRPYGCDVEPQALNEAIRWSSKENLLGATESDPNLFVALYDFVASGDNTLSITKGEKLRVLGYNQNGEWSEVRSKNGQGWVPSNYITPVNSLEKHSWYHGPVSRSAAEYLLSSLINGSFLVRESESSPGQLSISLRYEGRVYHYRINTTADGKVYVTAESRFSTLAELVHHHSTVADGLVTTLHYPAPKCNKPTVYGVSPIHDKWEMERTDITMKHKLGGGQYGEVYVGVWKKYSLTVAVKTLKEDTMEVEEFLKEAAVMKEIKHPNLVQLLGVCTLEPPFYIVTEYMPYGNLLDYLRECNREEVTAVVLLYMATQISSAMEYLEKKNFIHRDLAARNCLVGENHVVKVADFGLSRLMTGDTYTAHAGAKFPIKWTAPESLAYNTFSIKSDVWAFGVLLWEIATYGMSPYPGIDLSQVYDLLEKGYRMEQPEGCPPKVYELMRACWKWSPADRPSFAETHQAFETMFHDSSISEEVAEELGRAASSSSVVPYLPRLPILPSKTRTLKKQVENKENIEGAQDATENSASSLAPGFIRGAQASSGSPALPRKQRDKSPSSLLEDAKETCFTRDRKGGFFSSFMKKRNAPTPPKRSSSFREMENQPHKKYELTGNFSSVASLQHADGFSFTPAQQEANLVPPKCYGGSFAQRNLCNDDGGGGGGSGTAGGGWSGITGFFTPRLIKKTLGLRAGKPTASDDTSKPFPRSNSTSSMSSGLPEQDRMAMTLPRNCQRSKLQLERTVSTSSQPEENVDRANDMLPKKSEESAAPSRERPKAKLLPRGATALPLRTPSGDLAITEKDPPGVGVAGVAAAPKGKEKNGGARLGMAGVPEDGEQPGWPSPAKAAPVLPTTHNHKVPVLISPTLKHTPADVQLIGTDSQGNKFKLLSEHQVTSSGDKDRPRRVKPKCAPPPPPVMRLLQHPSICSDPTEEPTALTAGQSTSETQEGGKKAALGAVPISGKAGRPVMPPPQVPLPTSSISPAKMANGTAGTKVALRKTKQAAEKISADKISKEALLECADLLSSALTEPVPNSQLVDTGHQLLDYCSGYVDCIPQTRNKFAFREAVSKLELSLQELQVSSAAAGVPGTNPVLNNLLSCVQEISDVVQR

[8] = biological target: Androgen receptor (Homo sapiens) (UniProt P10275); test: Selectivity interaction (Panel of non-epigenetic targets (kinases, GPCRs, ion channels, and transporters, Eurofins) ) EUB0000271b AR; settings: at 1 µM
Sequence of Androgen receptor (Homo sapiens) (P10275 whole entry): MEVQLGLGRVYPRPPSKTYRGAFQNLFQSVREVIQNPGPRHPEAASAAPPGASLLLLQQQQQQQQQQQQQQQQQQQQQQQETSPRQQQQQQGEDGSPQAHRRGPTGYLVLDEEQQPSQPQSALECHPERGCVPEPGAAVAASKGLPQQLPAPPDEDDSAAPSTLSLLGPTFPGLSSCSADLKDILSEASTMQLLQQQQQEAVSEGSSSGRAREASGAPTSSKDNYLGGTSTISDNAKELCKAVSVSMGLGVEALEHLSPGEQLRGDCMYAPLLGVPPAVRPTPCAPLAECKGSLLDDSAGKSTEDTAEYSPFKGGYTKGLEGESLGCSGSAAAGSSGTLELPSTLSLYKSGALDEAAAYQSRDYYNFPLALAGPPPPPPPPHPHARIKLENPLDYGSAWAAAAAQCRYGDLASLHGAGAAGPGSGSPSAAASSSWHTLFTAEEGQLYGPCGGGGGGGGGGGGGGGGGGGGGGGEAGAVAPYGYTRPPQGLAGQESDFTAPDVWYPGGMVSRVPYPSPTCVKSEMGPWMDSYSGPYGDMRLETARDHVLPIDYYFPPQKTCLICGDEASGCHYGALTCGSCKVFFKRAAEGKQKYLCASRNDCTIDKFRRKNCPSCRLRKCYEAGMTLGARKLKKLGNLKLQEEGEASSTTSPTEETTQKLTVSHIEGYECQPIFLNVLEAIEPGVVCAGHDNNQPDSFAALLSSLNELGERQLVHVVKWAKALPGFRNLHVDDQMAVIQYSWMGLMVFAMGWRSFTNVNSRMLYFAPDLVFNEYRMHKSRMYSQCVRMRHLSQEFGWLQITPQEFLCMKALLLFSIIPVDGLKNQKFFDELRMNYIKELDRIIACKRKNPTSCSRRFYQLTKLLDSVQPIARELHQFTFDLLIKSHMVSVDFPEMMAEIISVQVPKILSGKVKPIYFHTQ

[9] = biological target: T4, Phosphatidylinositol 5-phosphate 4-kinase type-2 gamma (Homo sapiens) (UniProt Q8TBX8); test: Selectivity interaction (KinomeScan (DiscoverX)) EUB0000695a PIP4K2C; settings: at 100 nM
T4 sequence (whole entry): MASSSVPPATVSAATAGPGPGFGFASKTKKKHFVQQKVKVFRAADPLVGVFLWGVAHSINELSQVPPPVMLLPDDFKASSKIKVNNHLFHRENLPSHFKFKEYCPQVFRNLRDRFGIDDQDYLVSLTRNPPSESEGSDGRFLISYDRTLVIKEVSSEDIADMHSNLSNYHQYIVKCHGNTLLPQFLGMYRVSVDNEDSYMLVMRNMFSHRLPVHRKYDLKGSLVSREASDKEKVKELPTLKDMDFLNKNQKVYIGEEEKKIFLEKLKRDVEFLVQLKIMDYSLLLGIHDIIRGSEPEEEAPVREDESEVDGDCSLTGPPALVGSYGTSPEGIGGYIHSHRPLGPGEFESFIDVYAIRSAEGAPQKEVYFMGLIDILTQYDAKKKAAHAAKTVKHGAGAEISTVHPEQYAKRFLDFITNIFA

[10] = biological target: Serine/threonine-protein kinase 32A (Homo sapiens) (UniProt Q8WU08); test: Selectivity interaction (Ambit KINOMEscan and KiNATiv profiling in Jurkat cells) EUB0000090b STK32A; format: cell-based; settings: at 1 µM
Sequence of Serine/threonine-protein kinase 32A (Homo sapiens) (Q8WU08 whole entry): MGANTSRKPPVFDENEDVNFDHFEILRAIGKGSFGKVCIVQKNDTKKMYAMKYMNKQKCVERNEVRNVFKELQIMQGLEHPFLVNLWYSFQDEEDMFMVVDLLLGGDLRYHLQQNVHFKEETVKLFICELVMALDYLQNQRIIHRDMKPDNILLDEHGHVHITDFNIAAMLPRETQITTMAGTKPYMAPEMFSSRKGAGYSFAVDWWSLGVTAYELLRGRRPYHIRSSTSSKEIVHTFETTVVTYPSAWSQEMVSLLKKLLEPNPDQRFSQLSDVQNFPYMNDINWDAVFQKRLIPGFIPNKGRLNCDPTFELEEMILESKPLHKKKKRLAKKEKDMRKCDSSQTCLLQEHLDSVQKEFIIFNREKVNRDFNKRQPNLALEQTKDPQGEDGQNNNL

CC(C)(O)[C@H](F)CN1Cc2cc(NC(=O)c3cnn4cccnc34)c(N3CCOCC3)cc2C1=O
dTM [1]: 2.1 K

COc1cc(N(C)c2ccnc3ccc(C(F)(F)F)cc23)cc(OC)c1OC
% binding [2]: 95%

Cc1ccc(-c2ccc3c(ccc4sc5c(c43)NC[C@@H](C)NC5=O)n2)cn1
% of inhibition [3]: 4%

Cn1cc(-n2cnc3c(NCc4nc5cc(Cl)c(Cl)cc5[nH]4)nc(N4CCOCC4)nc32)cn1
% of control [4]: 9.63%

CC[C@@H]1[C@H](F)C(=O)N[C@@H]1COc1nccc2cc(C(N)=O)c(OC)cc12 [ZIMLOVISERTIB]
% of inhibition [5]: 5.25%

CNC(=O)Nc1ccc(-c2nc(N3CC4CCC(C3)O4)c3cnn(C4CCC5(CC4)OCCO5)c3n2)cc1
% of control [6]: 100%

COc1cc(Nc2nc(C)cc(-c3cnn4nc(OC)ccc34)n2)cc(C(F)(F)F)c1
% of control [7]: 76%

Cc1cc(C)cc([C@@H]2c3cc(C)ccc3NC(=O)CN2C(=O)c2ccc(Br)s2)c1
% of inhibition [8]: -7%

Cc1cc(F)c(C(=O)Nc2cccc(-c3nncn3C(C)C)n2)cc1-n1cnc(C2CC2)c1
% of control [9]: 100%

CN(C)C/C=C/C(=O)Nc1ccc(C(=O)N2CCCC(Nc3ncc(Cl)c(-c4c[nH]c5ccccc45)n3)C2)cc1 (stereo not given)
% of control [10]: 99%
